Assay results reported in patent US8399522B2, “3.2.1-bicyclo-octane compounds” (International Flavors & Fragrances Inc, priority 2010, dated 2013).

What was measured:
[1] = Sweat malodor coverage, jar test ranked by sensory panel; parameters: species or system human; settings: compound 10% in solvent; for Sweat Malodor, mean rank of malodor coverage: 8 oz jar, 1 hour equilibration, 15-18 panelists, scale 1 (No Coverage), 3 (Moderate Coverage), 5 (Excellent Coverage)
Protocol: (§1) Establishment of Malodor Models: It is known that the perspirative malodors of human body, particularly sweat, are associated with the production of several unpleasant smelling organic acids, particularly isovaleric acid (“IVA”). The commercial sample of this malodorous material (commercially available at Sigma-Aldrich Inc.) was thus used as a model compound to assess the effectiveness of sweat malodor counteractants. The mold/mildew malodor model was prepared based on applicant's proprietary formulations for assessing the effectiveness of mold/mildew malodor counteractants.
(§2) Preparation of Test Samples: Two aluminum dishes were placed in an 8 oz glass jar. A malodor material was pipetted into one aluminum dish, and a compound of the present invention diluted in a solvent (10%) or a solvent alone control was pipetted into the other aluminum dish. The jar was then capped and the samples were allowed to equilibrate for one hour before the testing.
(§3) Testing Procedure: Test samples were presented in a blind and random order to 15-18 internal panelists (consisting of men/women with an age range of 25 to 55). However, different odor samples were arranged in an alternative order (for example, sweat, mold/mildew, sweat, mold/mildew, and etc.).
(§4) The panelists were instructed to take the steps of i) sniff jars containing only the malodor materials for familiarization prior to the testing; ii) uncap a jar; iii) place their noses at a distance of about 3-4 inches above the opening; iv) take short sniffs for 3 seconds; and v) provide a rank of the malodor coverage using an intensity scale of 1 to 5, where 1 represents “No Coverage”, 3 represents “Moderate Coverage”, and 5 represents “Excellent Coverage”. The means for each sample was then calculated.

[2] = Mold/mildew malodor coverage, jar test ranked by sensory panel; parameters: species or system human; settings: compound 10% in solvent; for Mold/Mildew Malodor, mean rank of malodor coverage: 8 oz jar, 1 hour equilibration, 15-18 panelists, scale 1 (No Coverage), 3 (Moderate Coverage), 5 (Excellent Coverage)
Protocol: as §1, §2, §3, §4

[3] = Vapor pressure; format: physicochemical

| Vapor Pressure [3] | SMILES | counteracting sweat malodor (in words) [1] | Sweat Malodor, mean rank of malodor coverage [1] | counteracting mold/mildew malodor (in words) [2] | Mold/Mildew Malodor, mean rank of malodor coverage [2] |
| --- | --- | --- | --- | --- | --- |
| 4305 µg/L | CC1C(=O)CC2(C)CCC1C2 (centres unmarked) [Structure 2, 1,4-dimethyl-bicyclo[3.2.1]octan-3-one] | effective | 3.57 | effective | 3.63 |
| 1045 µg/L | CC1CC2(C)C3CCC(C)(C3)CC2O1 (centres unmarked) [Structure 4, 2,4,8-trimethyl-5-oxa-tricyclo [6.2.1.0*2,6*]undecane] | effective | 3.11 | effective | 2.79 |
| 2186 µg/L | CC12CCC(C1)C1(C)OC1C2 (centres unmarked) [Structure 1, 2,6-dimethyl-3-oxa-tricyclo[4.2.1.0*2,4*]nonane] | effective | 3.59 | effective | 3.87 |
| 1281 µg/L | CC1C2CCC(C)(C2)CC12OCCO2 (centres unmarked) [Structure 5, 1,4-dimethyl-bicyclo[3.2.1]octan-3-dioxolane] | effective | 2.92 | effective | 2.39 |
